{"source": "paper PMC3950497", "about": "(Advances in Pharmacological Sciences, 2014)", "key": {"[1]": {"format": "in vivo, rabbit", "conditions": "i.m. injection, plasma, from 15 min, extrapolated to infinity", "protocol": "The selected rabbits were administrated intramuscular with stephaglabrine sulfate at doses 0.1 mg/kg as it was established before. Each animal received a single dose.\nQuantitative analysis was acquired in SRM (selected reactions monitoring) mode on Agilent 6490 triple quadrupole mass spectrometer (Agilent, USA) operated in the positive mode and equipped with Jet Stream ESI ion source. Stepharine was detected in the scheduled selected reaction monitoring (SRM) with unit resolution at both first (Q1) and third (Q3) quadrupoles. The retention time point of stepharine was determined as 9.8 with isolation width of 1 minute for the scheduled SRM method application. The optimal conditions of the analysis were achieved as follows: capillary voltage was −4500 V, nozzle voltage was set at −1200 V, flow rate of drying gas (N2) was 16 L/min, flow rate of sheath gas (N2) was 8 L/min, temperature of drying gas was set at 340°C, temperature of sheath gas was set at 290°C, and nebulizer gas was operated at 20 psi. The transitions for protonated stepharine [M+H]^+ 298.4 → 161.2, 192.1, 238.2 were selected for SRM analysis. The isolation window for the fragment ions was set at 0.27 amu, the optimum fragmentor voltage was adjusted to 310 V and collision energy −19 eV. All the samples including calibration points were analyzed in three replications. 30 μL of the samples was injected and loaded on chromatographic column. Calibration was performed on standard samples solution prepared in 20% acetonitrile with concentration of stepharine from 10^−4 μg/mL to 100 μg/mL. Chromatographic separation was performed on Thermo Hypersil-Keystone ODS column (Thermo Scientific, USA) 100 × 2.1 mm, 5 μm particle size, at flow rate of 200 μL/min and with the following elution conditions: loading onto the column at maintained 20% of mobile phase B for 3 minutes, increasing the gradient to 50% of B at 5 minutes following increasing the gradient to 100% of mobile phase B at 15 minutes. The column was washed and maintained at 100% mobile phase B from 15 to 22 minutes and the composition was decreased to 20% of solvent B at 23 minute. The column was reequilibrated at starting conditions of solvent A-solvent B system ([…], v/v) for 10 minutes at flow 200 μL/min.\n0.5 mL of blood samples from each animal was collected from ear vein in the tubes with EDTA before administration and at 15, 30, 60, 90, 120, 180, 480, 720, and 1440 minutes after drug ingestion. Blood samples were immediately put on ice and centrifuged at 5000 g for 10 minutes at 4°C within one hour after blood collection. The obtained plasma was placed in sterile tube and kept at −20°C until analysis.\nPlasma proteins were precipitated with acetonitrile. For this purpose, two volumes of acetonitrile were added to 100 μL of rabbit plasma into 1.5 mL plastic tube and 30% ammonia hydroxide was added to adjust the pH to 10. After vortex-mixing for 15 minutes at ambient temperature one volume of chloroform was added three times consequently for 2 hours and incubated at 30°C under regular stirring at 900 rpm at each occasion. The first fraction of upper organic layer was collected after 2 hours of incubation, the second and the third fractions of chloroform extract were collected after additional 30 and 60 minutes of incubation, respectively. The collected fractions were combined and transferred to a new tube and dried under vacuum at 30°C. The resulting pellet was resuspended in 100 μL of 20% water-acetonitrile solution and centrifuged at 14000 rpm for 15 minutes immediately before use. The obtained solution was used for LC-MS analysis. […]"}, "[2]": {"conditions": "dichloromethane and hexane as extracting solvents"}, "[3]": {"system": "denervated extremities at traumatic injuries of sciatic nerve", "parameters": "method as in ref 4, 5 = [4]; 4 Kuznecov J Arzamascev E Malinovskaja C Pharmacological properties and toxicologic characteristics of stefaglabrin sulphate Medicines Plant Origin in Modern Therapy 1989 2 p. 71 || [5]; 5 Schelchkova II Il'inskaya TN Kuzovkov AD The alkaloids of Stephania glabra Chemistry of Natural Compounds 1965 1 4 210 212", "conditions": "rabbits, intramuscular injection 0.1 mg/kg; cited from earlier work"}, "[4]": {"conditions": "water and aqueous alcohol; cited from earlier work"}, "cholinesterase": {"system": "cholinesterase", "parameters": "method as in ref 11 = [11]; 11 Berezhinskaya VV Nikittna SS Trutneva EA Medicinal plants pharmacology and chemotherapy Trudy Vsesoyuznogo Nauchno-Issledovatel'skogo Instituta Lekarstvenny Rastenii 1971 14 66 69", "conditions": "in vitro; cited from earlier work"}, "synaptic transmission": {"system": "synaptic transmission", "parameters": "method as in PMID 1652103", "conditions": "at low concentration; cited from earlier work"}, "pseudocholinesterase": {"system": "pseudocholinesterase", "parameters": "method as in ref 11 = [11]; 11 Berezhinskaya VV Nikittna SS Trutneva EA Medicinal plants pharmacology and chemotherapy Trudy Vsesoyuznogo Nauchno-Issledovatel'skogo Instituta Lekarstvenny Rastenii 1971 14 66 69", "conditions": "in vitro; cited from earlier work"}, "[5]": {"conditions": "without side effects such as α- or β-adrenergic blockade, sedative or depressant effect; cited from earlier work"}}, "note": "Counter-ions that a name gives are not always drawn. Like-named read-outs stand apart in the source and are kept apart here.", "data": [{"smiles": "COc1cc2c3c(c1OC)C1(C=CC(=O)C=C1)C[C@H]3NCC2", "note": "[stephaglabrine sulfate, Stephaglabrine sulfate]", "values": [{"measurement": "AUC15", "setting": "[1]; rabbit ST01, dosage 0.50 mg (0.1 mg/kg)", "value": 1661, "unit": "ng∗min/mL"}, {"measurement": "AUC15", "setting": "[1]; rabbit ST02, dosage 0.50 mg (0.1 mg/kg)", "value": 3187, "unit": "ng∗min/mL"}, {"measurement": "AUC15", "setting": "[1]; rabbit ST04, dosage 0.45 mg (0.1 mg/kg)", "value": 2516, "unit": "ng∗min/mL"}, {"measurement": "AUC15", "setting": "[1]; rabbit ST05, dosage 0.50 mg (0.1 mg/kg)", "value": 2217, "unit": "ng∗min/mL"}, {"measurement": "AUC15", "setting": "[1]; rabbit ST06, dosage 0.50 mg (0.1 mg/kg)", "value": 2769, "unit": "ng∗min/mL"}, {"measurement": "solubility in highly nonpolar solvents", "setting": "[2]", "value": "low solubility"}, {"measurement": "intensity of trophic disturbances of denervated extremities", "setting": "[3]", "value": "significantly decreases intensity of trophic disturbances"}, {"measurement": "solubility", "setting": "[4]", "value": "soluble in water and aqueous alcohol"}, {"measurement": "inhibition of cholinesterase", "setting": "cholinesterase", "value": "inhibits"}, {"measurement": "frequency of miniature endplate potential", "setting": "synaptic transmission", "value": "diminishes frequency of miniature endplate potential"}, {"measurement": "inhibition of pseudocholinesterase", "setting": "pseudocholinesterase", "value": "inhibits"}, {"measurement": "antihypertensive activity", "setting": "[5]", "value": "possesses antihypertensive activity"}]}]}
